Assay results from article PMC11202142, “Succinimide Derivatives as Acetylcholinesterase Inhibitors—In Silico and In Vitro Studies” (Current Issues in Molecular Biology, 2024).

B1: acetylcholinesterase (AChE) (Homo sapiens) (protein)
chain: EGREDAELLVTVRGGRLRGIRLKTPGGPVSAFLGIPFAEPPMGPRRFLPPEPKQPWSGVVDATTFQSVCYQYVDTLYPGFEGTEMWNPNRELSEDCLYLNVWTPYPRPTSPTPVLVWIYGGGFYSGASSLDVYDGRFLVQAERTVLVSMNYRVGAFGFLALPGSREAPGNVGLLDQRLALQWVQENVAAFGGDPTSVTLFGESAGAASVGMHLLSPPSRGLFHRAVLQSGAPNGPWATVGMGEARRRATQLAHLVGCPPGGTGGNDTELVACLRTRPAQVLVNHEWHVLPQESVFRFSFVPVVDGDFLSDTPEALINAGDFHGLQVLVGVVKDEGSYFLVYGAPGFSKDNESLISRAEFLAGVRVGVPQVSDLAAEAVVLHYTDWLHPEDPARLREALSDVVGDHNVVCPVAQLAGRLAAQGARVYAYVFEHRASTLSWPLWMGVPHGYEIEFIFGIPLDPSRNYTAEEKIFAQRLMRYWANFARTGDPNEPRDPKAPQWPPYTAGAQQYVSLDLRPLEVRRGLRAQACAFWNRFLPKLLSATDTLDEAERQWKAEFHRWSSYMVHWKNQFDHYSKQDRCSDL

Key:
[1] = molecular target: acetylcholinesterase (AChE) (Homo sapiens, UniProt P22303); assay: Ellman spectrophotometric assay, Lineweaver-Burk kinetics; format: biochemical
[2] = substrate: CC(=O)SCC[N+](C)(C)C; assay: Ellman assay, Km from Lineweaver-Burk plot without inhibitor; format: biochemical, Homo sapiens

| Molecule | IC50 [1] | Km [2] | Vmax [2] |
| --- | --- | --- | --- |
| CCC12C(=O)C(CC)(C(c3ccccc3)=C1c1ccccc1)C1C(=O)NC(=O)C12 (stereo not shown) [I, diethyl (I) succinimide derivative] | 31 ± 3 µM | – | – |
| CC12C(=O)C(C)(C(c3ccccc3)=C1c1ccccc1)C1C(=O)NC(=O)C12 (stereo not shown) [II, dimethyl (II) succinimide derivative] | 29 ± 2 µM | – | – |
| B1 | – | 960 µM | 630 µM/min |
